# Experimental data: ChEMBL document CHEMBL1629669, “Two clinical strains of Klebsiella pneumoniae carrying plasmid-borne blaIMP-4, blaSHV-12, and armA isolated at a Pediatric Center in Shanghai, China” (2009)
# What was measured:
# Type in all cases: functional
# Klebsiella pneumoniae [1] = assay: Antimicrobial activity against multidrug resistant Klebsiella pneumoniae isolate KpSCMC1 harboring int1, bla IMP-4, bla SHV-12, armA and sul1 gene isolated from patient with pulmonary infection by Etest method
# Klebsiella pneumoniae [2] = assay: Antimicrobial activity against multidrug resistant Klebsiella pneumoniae isolate KpSCMC2 harboring int1, bla IMP-4, bla SHV-12, armA and sul1 gene isolated from patient with pulmonary infection by disk diffusion method
# Klebsiella pneumoniae [3] = assay: Antimicrobial activity against carbapenem susceptible Klebsiella pneumoniae isolate KpSCMC2c harboring bla SHV-12 gene isolated from patient with pulmonary infection by Etest method
# Klebsiella pneumoniae [4] = assay: Antimicrobial activity against carbapenem susceptible Klebsiella pneumoniae isolate KpSCMC2c harboring bla SHV-12 gene isolated from patient with pulmonary infection by disk diffusion method
# Klebsiella pneumoniae [5] = assay: Antimicrobial activity against multidrug resistant Klebsiella pneumoniae isolate KpSCMC1 harboring int1, bla IMP-4, bla SHV-12, armA and sul1 gene isolated from patient with pulmonary infection by disk diffusion method
# Klebsiella pneumoniae [6] = assay: Antimicrobial activity against multidrug resistant Klebsiella pneumoniae isolate KpSCMC2 harboring int1, bla IMP-4, bla SHV-12, armA and sul1 gene isolated from patient with pulmonary infection by Etest method
Structure (SMILES),MIC (Klebsiella pneumoniae [1]),inhibition zone (IZ) (Klebsiella pneumoniae [2]),MIC (Klebsiella pneumoniae [3]),inhibition zone (IZ) (Klebsiella pneumoniae [4]),inhibition zone (IZ) (Klebsiella pneumoniae [5]),MIC (Klebsiella pneumoniae [6])
C[C@@H](O)[C@H]1C(=O)N2C(C(=O)O)=C(SCCNC=N)C[C@H]12 [IMIPENEM ANHYDROUS],3 µg/mL,20 mm,0.064 µg/mL,26 mm,21 mm,2 µg/mL
C[C@@H](O)[C@H]1C(=O)N2C(C(=O)O)=C(S[C@@H]3CN[C@H](C(=O)N(C)C)C3)[C@H](C)[C@H]12 [MEROPENEM],8 µg/mL,13 mm,0.25 µg/mL,27 mm,14 mm,4 µg/mL
